Measurements published in ChEMBL document CHEMBL1201862, “PubChem BioAssay data set” (2004).
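96-well plates; 48 h exposure; 5 concentrations. Endpoints by linear interpolation between flanking doses. Not reached: highest tested concentration assigned. Abbreviation: GI50, concentration required for 50% inhibition of growth.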 Activity calls are given as the source filed them. No stated cut-off is given here; in the data, active = GI50 up to about 1.1 µM and inactive = higher.

Legend:
Assay in all cases: inhibition of tumour cell growth, NCI panel, 48 h
786-0 = tested on: 786-0
A498 = tested on: A498
A549 = tested on: A549
ACHN = tested on: ACHN
CAKI-1 = tested on: CAKI-1
CCRF-CEM = tested on: CCRF-CEM
COLO 205 = tested on: COLO 205
DLD-1 = tested on: DLD-1
DMS-114 = tested on: DMS-114
DMS-273 = tested on: DMS-273
HCC 2998 = tested on: HCC 2998
HCT-116 = tested on: HCT-116
HCT-15 = tested on: HCT-15
HL-60 = tested on: HL-60
HOP-18 = tested on: HOP-18
HOP-62 = tested on: HOP-62
HOP-92 = tested on: HOP-92
HT-29 = tested on: HT-29
IGROV-1 = tested on: IGROV-1
K562 = tested on: K562
KM-20L2 = tested on: KM-20L2
KM12 = tested on: KM12
LOX IMVI = tested on: LOX IMVI
LXFL 529 = tested on: LXFL 529
M14 = tested on: M14
M19-MEL = tested on: M19-MEL
MOLT-4 = tested on: MOLT-4
Malme-3M = tested on: Malme-3M
NCI-H226 = tested on: NCI-H226
NCI-H23 = tested on: NCI-H23
NCI-H460 = tested on: NCI-H460
NCI-H522 = tested on: NCI-H522
OVCAR-3 = tested on: OVCAR-3
OVCAR-4 = tested on: OVCAR-4
OVCAR-5 = tested on: OVCAR-5
OVCAR-8 = tested on: OVCAR-8
RPMI-8226 = tested on: RPMI-8226
RXF 393 = tested on: RXF 393
RXF 631 = tested on: RXF 631
SF-268 = tested on: SF-268
SF-295 = tested on: SF-295
SF-539 = tested on: SF-539
SK-MEL-28 = tested on: SK-MEL-28
SK-MEL-2 = tested on: SK-MEL-2
SK-MEL-5 = tested on: SK-MEL-5
SK-OV-3 = tested on: SK-OV-3
SN12C = tested on: SN12C
SNB-19 = tested on: SNB-19
SNB-75 = tested on: SNB-75
SNB-78 = tested on: SNB-78
SR = tested on: SR
SW-620 = tested on: SW-620
TK-10 = tested on: TK-10
U-251 = tested on: U-251
UACC-257 = tested on: UACC-257
UACC-62 = tested on: UACC-62
UO-31 = tested on: UO-31
EKVX = tested on: EKVX
XF498 = tested on: XF498

With `Cc1c2c(c(C)c3c1[nH]c1ccccc13)CN(C)CC2` the GI50 (786-0) was 14.9 µM (inactive), the GI50 (A498) was 19.5 µM (inactive) and the GI50 (A549) was 17.9 µM (inactive). For the same molecule, the GI50 (ACHN) was 18.2 µM (inactive), the GI50 (CAKI-1) was 13.2 µM (inactive) and the GI50 (CCRF-CEM) was 49.4 µM (inactive). The GI50 (COLO 205) was 15 µM (inactive), the GI50 (DLD-1) was 34.4 µM (inactive) and the GI50 (DMS-114) was 15.1 µM (inactive). The GI50 (DMS-273) was 16.7 µM (inactive), the GI50 (HCC 2998) was 16.7 µM (inactive) and the GI50 (HCT-116) was 16 µM (inactive). The GI50 (HCT-15) was 15.3 µM, the GI50 (HL-60) was 52 µM (inactive) and the GI50 (HOP-18) was 6.21 µM (inactive). The GI50 (HOP-62) was 23.2 µM (inactive), the GI50 (HOP-92) was 16.6 µM (inactive) and the GI50 (HT-29) was 16.7 µM (inactive). For the same molecule, the GI50 (IGROV-1) was 26.8 µM (inactive), the GI50 (K562) was 31.3 µM (inactive) and the GI50 (KM-20L2) was 18.8 µM (inactive). The GI50 (KM12) was 16.6 µM (inactive), the GI50 (LOX IMVI) was 15.5 µM (inactive) and the GI50 (LXFL 529) was 14.9 µM (inactive). For the same molecule, the GI50 (M14) was 15.1 µM (inactive), the GI50 (M19-MEL) was 16.6 µM (inactive) and the GI50 (MOLT-4) was 28.7 µM (inactive). For the same molecule, the GI50 (Malme-3M) was 16.7 µM (inactive), the GI50 (NCI-H226) was 19.1 µM (inactive) and the GI50 (NCI-H23) was 15.4 µM (inactive). For the same molecule, the GI50 (NCI-H460) was 16.5 µM (inactive), the GI50 (NCI-H522) was 17 µM (inactive) and the GI50 (OVCAR-3) was 18.7 µM (inactive). The GI50 (OVCAR-4) was 23.4 µM (inactive), the GI50 (OVCAR-5) was 38.8 µM (inactive) and the GI50 (OVCAR-8) was 16.4 µM (inactive). The GI50 (RPMI-8226) was 26.4 µM (inactive), the GI50 (RXF 393) was 17.6 µM (inactive) and the GI50 (RXF 631) was 22.8 µM (inactive). For the same molecule, the GI50 (SF-268) was 20.3 µM (inactive), the GI50 (SF-295) was 17.1 µM (inactive) and the GI50 (SF-539) was 14.2 µM (inactive). The GI50 (SK-MEL-28) was 19.2 µM (inactive), the GI50 (SK-MEL-2) was 17.3 µM (inactive) and the GI50 (SK-MEL-5) was 13.3 µM (inactive). For the same molecule, the GI50 (SK-OV-3) was 25.5 µM (inactive), the GI50 (SN12C) was 20.6 µM (inactive) and the GI50 (SNB-19) was 27.4 µM (inactive). The GI50 (SNB-75) was 13.5 µM (inactive), the GI50 (SNB-78) was 21.9 µM (inactive) and the GI50 (SR) was 24.8 µM (inactive). For the same molecule, the GI50 (SW-620) was 15.3 µM (inactive), the GI50 (TK-10) was 29.4 µM (inactive) and the GI50 (U-251) was 12.1 µM (inactive). The GI50 (UACC-257) was 17.2 µM (inactive), the GI50 (UACC-62) was 18 µM (inactive) and the GI50 (UO-31) was 19.5 µM (inactive).

With `NS(=O)(=O)c1ccc(NC(=O)C2C(=O)C(=O)N(c3ccc(S(N)(=O)=O)cc3)C2=O)cc1` (stereo not given) the GI50 (786-0) was > 100 µM (inactive), the GI50 (A498) was > 100 µM (inactive) and the GI50 (A549) was > 100 µM (inactive). For the same molecule, the GI50 (ACHN) was > 100 µM (inactive), the GI50 (CAKI-1) was > 100 µM (inactive) and the GI50 (CCRF-CEM) was > 100 µM (inactive). For the same molecule, the GI50 (COLO 205) was > 100 µM (inactive), the GI50 (DLD-1) was > 100 µM (inactive) and the GI50 (DMS-114) was > 100 µM (inactive). For the same molecule, the GI50 (DMS-273) was > 100 µM (inactive), the GI50 (EKVX) was > 100 µM (inactive) and the GI50 (HCC 2998) was > 100 µM (inactive). For the same molecule, the GI50 (HCT-116) was > 100 µM (inactive), the GI50 (HCT-15) was > 100 µM and the GI50 (HL-60) was > 10 µM (inactive). For the same molecule, the GI50 (HOP-18) was > 100 µM (inactive), the GI50 (HOP-62) was > 100 µM (inactive) and the GI50 (HOP-92) was > 100 µM (inactive). For the same molecule, the GI50 (HT-29) was > 100 µM (inactive), the GI50 (IGROV-1) was > 100 µM (inactive) and the GI50 (K562) was > 100 µM (inactive). The GI50 (KM-20L2) was > 100 µM (inactive), the GI50 (LOX IMVI) was > 100 µM (inactive) and the GI50 (LXFL 529) was > 100 µM (inactive). The GI50 (M14) was > 100 µM (inactive), the GI50 (M19-MEL) was > 100 µM (inactive) and the GI50 (MOLT-4) was > 100 µM (inactive). The GI50 (Malme-3M) was > 100 µM (inactive), the GI50 (NCI-H226) was > 100 µM (inactive) and the GI50 (NCI-H23) was > 100 µM (inactive). For the same molecule, the GI50 (NCI-H522) was > 100 µM (inactive), the GI50 (OVCAR-3) was > 100 µM (inactive) and the GI50 (OVCAR-4) was > 100 µM (inactive). The GI50 (OVCAR-5) was > 100 µM (inactive), the GI50 (OVCAR-8) was > 100 µM (inactive) and the GI50 (RPMI-8226) was > 100 µM (inactive). The GI50 (RXF 393) was > 100 µM (inactive), the GI50 (RXF 631) was > 100 µM (inactive) and the GI50 (SF-268) was > 100 µM (inactive). For the same molecule, the GI50 (SF-295) was > 100 µM (inactive), the GI50 (SF-539) was > 100 µM (inactive) and the GI50 (SK-MEL-28) was > 100 µM (inactive). The GI50 (SK-MEL-2) was > 100 µM (inactive), the GI50 (SK-MEL-5) was > 100 µM (inactive) and the GI50 (SK-OV-3) was > 100 µM (inactive). For the same molecule, the GI50 (SN12C) was > 100 µM (inactive), the GI50 (SNB-19) was > 100 µM (inactive) and the GI50 (SNB-75) was > 100 µM (inactive). For the same molecule, the GI50 (SNB-78) was > 100 µM (inactive), the GI50 (SR) was > 100 µM (inactive) and the GI50 (SW-620) was > 100 µM (inactive). For the same molecule, the GI50 (TK-10) was > 100 µM (inactive), the GI50 (U-251) was > 100 µM (inactive) and the GI50 (UACC-257) was > 100 µM (inactive). For the same molecule, the GI50 (UACC-62) was > 100 µM (inactive) and the GI50 (UO-31) was > 100 µM (inactive).

For `CCOC(=O)[N-]c1ccc(S(=O)(=O)[O+](C)CCl)cc1.CCOC(=O)[N-]c1ccc(S(=O)(=O)[O+](C)CCl)cc1.NC(=O)N=O.NC(=O)OCCCl`, the GI50 (786-0) was > 100 µM (inactive), the GI50 (A498) was > 100 µM (inactive) and the GI50 (A549) was > 100 µM (inactive). For the same molecule, the GI50 (CAKI-1) was > 100 µM (inactive), the GI50 (CCRF-CEM) was > 100 µM (inactive) and the GI50 (COLO 205) was > 100 µM (inactive). For the same molecule, the GI50 (DMS-114) was > 100 µM (inactive), the GI50 (HCC 2998) was > 100 µM (inactive) and the GI50 (HCT-116) was > 100 µM (inactive). For the same molecule, the GI50 (HCT-15) was > 100 µM, the GI50 (HL-60) was > 100 µM (inactive) and the GI50 (HOP-18) was > 100 µM (inactive). The GI50 (HOP-62) was > 100 µM (inactive), the GI50 (HOP-92) was > 100 µM (inactive) and the GI50 (HT-29) was > 100 µM (inactive). For the same molecule, the GI50 (IGROV-1) was > 100 µM (inactive), the GI50 (K562) was > 100 µM (inactive) and the GI50 (KM-20L2) was > 100 µM (inactive). For the same molecule, the GI50 (KM12) was > 100 µM (inactive), the GI50 (LOX IMVI) was > 100 µM (inactive) and the GI50 (LXFL 529) was > 100 µM (inactive). For the same molecule, the GI50 (M14) was > 100 µM (inactive), the GI50 (M19-MEL) was > 100 µM (inactive) and the GI50 (MOLT-4) was > 100 µM (inactive). For the same molecule, the GI50 (Malme-3M) was > 100 µM (inactive), the GI50 (NCI-H23) was > 100 µM (inactive) and the GI50 (NCI-H460) was > 100 µM (inactive). For the same molecule, the GI50 (OVCAR-5) was > 100 µM (inactive), the GI50 (OVCAR-8) was > 100 µM (inactive) and the GI50 (RXF 631) was > 100 µM (inactive). For the same molecule, the GI50 (SF-268) was > 100 µM (inactive), the GI50 (SF-295) was > 100 µM (inactive) and the GI50 (SF-539) was > 100 µM (inactive). The GI50 (SK-MEL-28) was > 100 µM (inactive), the GI50 (SK-MEL-2) was > 100 µM (inactive) and the GI50 (SK-OV-3) was > 100 µM (inactive). For the same molecule, the GI50 (SN12C) was > 100 µM (inactive), the GI50 (SNB-19) was > 100 µM (inactive) and the GI50 (SNB-78) was > 100 µM (inactive). For the same molecule, the GI50 (SR) was > 100 µM (inactive), the GI50 (SW-620) was > 100 µM (inactive) and the GI50 (TK-10) was > 100 µM (inactive). The GI50 (U-251) was > 100 µM (inactive), the GI50 (UACC-257) was > 100 µM (inactive) and the GI50 (UACC-62) was > 100 µM (inactive). For the same molecule, the GI50 (UO-31) was > 100 µM (inactive) and the GI50 (XF498) was > 100 µM (inactive).
